Here are results for 5 compounds from patent US20250154105A1, “POLYCYCLIC COMPOUND AND USE THEREOF” (TYK MEDICINES, INC., priority 2021, published 2025).

This assay concerns YAP-TEAD. The experiment in a line: YAP-TEAD inhibitor activity by Nano luciferase method (8xGTiiC-nLuc reporter in 293T cells). The class given is cell-based. The note with it: Homo sapiens, HEK-293T, 48 hours incubation, read-out: Nano-luciferase detection (IC50). An outline of the steps:
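IC50 derived from nLuc reporter signal normalised to 0 nM wells, after 48 h, 37 °C compound exposure (1:3.16 series, highest 10,000 nM). Cells: 293T transfected with 8xGTiiC-nLuc/CMV-fLuc plasmid, plated at 2000 per well.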
As to `CNS(=O)(=O)c1ccc2c(c1)c1cn(C)nc1c(=O)n2-c1ccc(C(F)(F)F)cc1` [Example T-32], the IC50 – broadly, the concentration needed to halve the response being measured – is not above 1 µM.
Take `C[C@H](NC(=O)c1ccc2c(c1)c1nn(C)cc1c(=O)n2-c1ccc(C(F)(F)F)cc1)c1ccccn1` [Example T-105]: the half-inhibitory concentration (IC50) was not above 1 µM.
Turning to `C[C@H](NC(=O)c1ccc2c(c1)c1cnccc1c(=O)n2-c1ccc(C(F)(F)F)cc1)c1ccccn1` [Example T-253], the half-maximal inhibitory concentration (IC50) was not above 1 µM.
Regarding `C[C@H](NC(=O)c1ccc2c(c1)c1ccccc1c(=O)n2-c1ccc(C(F)(F)F)cc1)c1ccccn1` [Example T-272], the IC50 was not above 1 µM.
As to `Cc1cc(=O)n(-c2ccc(C(F)(F)F)cc2)c2ccc(C(=O)N[C@@H](C)c3ccccn3)cc12` [Example T-277], the IC50 was not above 1 µM.
